This is an account of results in patent US9675539B2, “Cosmetic and pharmaceutical compositions and methods using 2-decarboxy-2-phosphinico derivatives” (Duke University, priority 2000, dated 2017).

This assay addresses hFP receptor (Homo sapiens (Human), UniProt P43088). As to the kind of experiment: Radioligand Binding Assay. The note with it: competition with 5 nM (3H) PGF2α on hFP membranes from transfected COS-7 cells; read-out: IC50 the PGF.

Chain of hFP receptor (P43088 whole entry): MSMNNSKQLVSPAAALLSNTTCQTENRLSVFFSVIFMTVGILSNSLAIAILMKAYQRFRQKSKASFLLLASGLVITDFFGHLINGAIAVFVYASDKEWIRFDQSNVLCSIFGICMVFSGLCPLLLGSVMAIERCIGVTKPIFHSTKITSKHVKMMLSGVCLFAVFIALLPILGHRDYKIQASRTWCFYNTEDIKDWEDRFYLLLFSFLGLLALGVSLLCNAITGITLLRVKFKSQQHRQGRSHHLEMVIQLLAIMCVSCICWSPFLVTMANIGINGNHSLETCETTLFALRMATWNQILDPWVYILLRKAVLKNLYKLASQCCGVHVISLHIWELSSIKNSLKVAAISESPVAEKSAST
Description: IC50 of a prostaglandin can be determined relative to PGF2α using the Radioligand Binding Assay.
In this assay, COS-7 cells are transiently transfected with the hFP recombinant plasmid using LipofectAMINE Reagent. Forty-eight hours later, the transfected cells are washed with Hank's Balanced Salt Solution (HBSS, without CaCl2, MgCl2, MgSO4, or phenol red). The cells are detached with versene, and HBSS is added. The mixture is centrifuged at 200 g for 10 minutes, at 4° C. to pellet the cells. The pellet is resuspended in Phosphate-Buffered Saline-EDTA buffer (PBS; 1 mM EDTA; pH 7.4; 4° C.). […] The mixture is centrifuged at 1000 g for 10 minutes at 4° C. The supernatant is centrifuged at 100,000 g for 60 minutes at 4° C. The pellet is resuspended to 1 mg protein/mL TME buffer (50 mM Tris; 10 mM MgCl2; 0.1 mM EDTA; pH 6.0; 4° C.) based on protein levels measured using the Pierce BCA Protein Assay kit. […] The membrane preparations are then stored at −80° C., until thawed for assay use.
The receptor competition binding assays are developed in a 96 well format. Each well contains 100 g of hFP membrane, 5 nM (3 H) PGF2α, and the various competing compounds in a total volume of 200 L. The plates are incubated at 23° C. for 1 hour. […] The plates are read on a Packard TOPCOUNT® Microplate Scintillation Counter (also available from Packard Instrument Co., Inc.)

Broadly, the IC50 is the concentration that inhibits the measured activity by half. With `CCCCCC(O)/C=C/[C@@H]1[C@@H](C/C=C\CCC[PH](=O)O)[C@@H](O)C[C@H]1O` (stereo partly shown) [Example 1-2], the half-maximal inhibitory concentration (IC50) came out at 114 nM.
